Key:
Format in all cases: in vivo
[1] = system: Alopecurus myosuroides (ALOMY); test: Pre-emergence herbicidal glasshouse test on Alopecurus myosuroides; details: pre-emergence; 1000 g/h; evaluated after 13 days
Outline: (§1)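 Application rate 1000 g/h, formulated in acetone/water (50:50) with 0.5% Tween 20 and sprayed onto pots sown 1 day (pre-emergence) or 8 days (post-emergence) earlier. Evaluation at 13 days rated damage from 1 (0-19%) to 5 (80-100%).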

Setaria faberi (SETFA) [2] = test: Pre-emergence herbicidal glasshouse test on Setaria faberi; details: pre-emergence; 1000 g/h; evaluated after 13 days
Outline: as §1

[3] = system: Echinochloa crus-galli (ECHCG); test: Pre-emergence herbicidal glasshouse test on Echinochloa crus-galli; details: pre-emergence; 1000 g/h; evaluated after 13 days
Outline: as §1

Solanum nigrum (SOLNI) [4] = test: Pre-emergence herbicidal glasshouse test on Solanum nigrum; details: pre-emergence; 1000 g/h; evaluated after 13 days
Outline: as §1

[5] = system: Amaranthus retoflexus (AMARE); test: Pre-emergence herbicidal glasshouse test on Amaranthus retoflexus; details: pre-emergence; 1000 g/h; evaluated after 13 days
Outline: as §1

[6] = system: Ipomoea hederacea (IPOHE); test: Pre-emergence herbicidal glasshouse test on Ipomoea hederacea; details: pre-emergence; 1000 g/h; evaluated after 13 days
Outline: as §1

[7] = system: Alopecurus myosuroides (ALOMY); test: Post-emergence herbicidal glasshouse test on Alopecurus myosuroides; details: post-emergence; 1000 g/h; evaluated after 13 days
Outline: as §1

Setaria faberi (SETFA) [8] = test: Post-emergence herbicidal glasshouse test on Setaria faberi; details: post-emergence; 1000 g/h; evaluated after 13 days
Outline: as §1

[9] = system: Echinochloa crus-galli (ECHCG); test: Post-emergence herbicidal glasshouse test on Echinochloa crus-galli; details: post-emergence; 1000 g/h; evaluated after 13 days
Outline: as §1

Solanum nigrum (SOLNI) [10] = test: Post-emergence herbicidal glasshouse test on Solanum nigrum; details: post-emergence; 1000 g/h; evaluated after 13 days
Outline: as §1

[11] = system: Amaranthus retoflexus (AMARE); test: Post-emergence herbicidal glasshouse test on Amaranthus retoflexus; details: post-emergence; 1000 g/h; evaluated after 13 days
Outline: as §1

[12] = system: Ipomoea hederacea (IPOHE); test: Post-emergence herbicidal glasshouse test on Ipomoea hederacea; details: post-emergence; 1000 g/h; evaluated after 13 days
Outline: as §1

SMILES | PRE Application ALOMY herbicidal damage (five point scale) [1] | PRE Application SETFA herbicidal damage (five point scale) (Setaria faberi (SETFA) [2]) | PRE Application ECHCG herbicidal damage (five point scale) [3] | PRE Application SOLNI herbicidal damage (five point scale) (Solanum nigrum (SOLNI) [4]) | PRE Application AMARE herbicidal damage (five point scale) [5] | PRE Application IPOHE herbicidal damage (five point scale) [6] | POST Application ALOMY herbicidal damage (five point scale) [7] | POST Application SETFA herbicidal damage (five point scale) (Setaria faberi (SETFA) [8]) | POST Application ECHCG herbicidal damage (five point scale) [9] | POST Application SOLNI herbicidal damage (five point scale) (Solanum nigrum (SOLNI) [10]) | POST Application AMARE herbicidal damage (five point scale) [11] | POST Application IPOHE herbicidal damage (five point scale) [12]
C#Cc1ccc(-c2cnn(C)c(=O)c2O)c(S(C)(=O)=O)c1 [Compound 2.028] | 5 (5=80-100% damage) | 4 (4=60-79% damage) | 5 (5=80-100% damage) | 5 (5=80-100% damage) | 5 (5=80-100% damage) | 4 (4=60-79% damage) | 5 (5=80-100% damage) | 5 (5=80-100% damage) | 5 (5=80-100% damage) | 5 (5=80-100% damage) | 5 (5=80-100% damage) | 5 (5=80-100% damage)
COCn1ncc(-c2ccc(C(F)(F)F)cc2[S+](C)[O-])c(O)c1=O (stereo not drawn) [Compound 1.146] | 4 (4=60-79% damage) | 2 (2=20-39% damage) | 5 (5=80-100% damage) | 5 (5=80-100% damage) | 5 (5=80-100% damage) | 4 (4=60-79% damage) | 5 (5=80-100% damage) | 5 (5=80-100% damage) | 5 (5=80-100% damage) | 5 (5=80-100% damage) | 5 (5=80-100% damage) | 5 (5=80-100% damage)
Cc1c(Cl)cccc1-c1c(C(F)(F)F)ccn(-c2cnn(C)c(=O)c2O)c1=O [Compound 7.030] | 5 (5=80-100% damage) | 4 (4=60-79% damage) | 5 (5=80-100% damage) | 5 (5=80-100% damage) | 5 (5=80-100% damage) | 4 (4=60-79% damage) | 5 (5=80-100% damage) | 5 (5=80-100% damage) | 5 (5=80-100% damage) | 5 (5=80-100% damage) | 5 (5=80-100% damage) | 5 (5=80-100% damage)
Cn1ncc(-n2ccc(C(F)(F)F)c(-c3cccc(C#N)c3)c2=O)c(O)c1=O [Compound 7.019] | 5 (5=80-100% damage) | 5 (5=80-100% damage) | 5 (5=80-100% damage) | 5 (5=80-100% damage) | 5 (5=80-100% damage) | 2 (2=20-39% damage) | 5 (5=80-100% damage) | 5 (5=80-100% damage) | 5 (5=80-100% damage) | 5 (5=80-100% damage) | 5 (5=80-100% damage) | 2 (2=20-39% damage)

Source: US9693556B2, “Herbicidal pyridazinone derivatives” (SYNGENTA LIMITED, priority 2011, dated 2017)
